We go through 18 compounds from ChEMBL document CHEMBL1146026, “Novel, potent, selective, and orally bioavailable human betaII-tryptase inhibitors” (Bioorg Med Chem Lett, 2006).

One data set concerns the target Trypsin (Homo sapiens, UniProt P07477+P07478+P35030). Kind of data set: Binding affinity to trypsin. The format is protein assay.
Data set [1] addresses T1, Tryptase beta-1 (Homo sapiens, UniProt Q15661). Kind of data set: Binding affinity to human tryptase beta2.
The target of data set [2] is T2, Tryptase (Rattus norvegicus, UniProt P27435).
T2 sequence (P27435 whole entry): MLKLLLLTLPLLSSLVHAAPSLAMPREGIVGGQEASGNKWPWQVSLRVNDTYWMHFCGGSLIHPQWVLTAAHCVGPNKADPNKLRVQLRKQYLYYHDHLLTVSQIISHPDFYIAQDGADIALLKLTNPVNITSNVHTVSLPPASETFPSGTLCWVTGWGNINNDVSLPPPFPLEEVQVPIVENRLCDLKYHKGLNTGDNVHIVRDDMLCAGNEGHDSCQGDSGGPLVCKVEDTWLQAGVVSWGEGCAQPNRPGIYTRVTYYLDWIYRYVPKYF
Kind of data set: Binding affinity to rat tryptase.

In data set [3] the target is T3, Tryptase (Mus musculus, UniProt Q02844).
T3 sequence (Q02844 whole entry): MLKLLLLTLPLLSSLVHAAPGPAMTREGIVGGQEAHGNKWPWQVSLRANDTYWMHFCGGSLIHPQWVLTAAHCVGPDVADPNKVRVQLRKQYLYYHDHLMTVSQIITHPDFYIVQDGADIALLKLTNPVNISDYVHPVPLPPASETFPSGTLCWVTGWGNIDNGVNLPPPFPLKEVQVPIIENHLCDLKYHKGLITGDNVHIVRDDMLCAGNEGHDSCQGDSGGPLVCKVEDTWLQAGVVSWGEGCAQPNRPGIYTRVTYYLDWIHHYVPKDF
Briefly: Binding affinity to mouse tryptase.

The target in data set [4] is Tryptase (Canis lupus familiaris, UniProt P15944). Briefly: Binding affinity to dog tryptase.
Sequence of Tryptase (Canis lupus familiaris, UniProt P15944) (P15944 whole entry): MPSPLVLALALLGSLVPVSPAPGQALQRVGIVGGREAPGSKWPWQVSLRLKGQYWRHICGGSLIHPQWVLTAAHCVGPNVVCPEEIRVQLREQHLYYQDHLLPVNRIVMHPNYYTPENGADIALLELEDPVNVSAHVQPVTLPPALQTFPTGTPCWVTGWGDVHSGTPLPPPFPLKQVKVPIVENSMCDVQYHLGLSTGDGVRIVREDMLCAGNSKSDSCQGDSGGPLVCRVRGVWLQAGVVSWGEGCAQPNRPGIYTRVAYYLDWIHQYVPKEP
For data set [5], the target named is T1, Tryptase beta-1. Briefly: Binding affinity to recombinant cynomolgus monkey tryptase.
Data set [6] is described as follows: AUC in iv or po dosed rat. The format is ADME, organism-based. The note with it: plasma.
Data set [7] can be described thus: Volume of distribution in iv or po dosed rat. The format is ADME, organism-based. Particulars: in vivo, read-out: Vc.
The nature of data set [8]: Oral absorption in iv or po dosed rat. The note with it: in vivo. It is filed as ADME, organism-based.
A short description of data set [9]: Oral bioavailability in iv or po dosed rat. It is filed as ADME, organism-based. Particulars: in vivo.
Data set [10] is described as follows: Mean residence time in iv or po dosed rat. The format is ADME, organism-based. The note with it: in vivo, read-out: Vdss.
Data set [11] can be described thus: Bioavailability in ip dosed mouse. The note with it: in vivo. The format is ADME, organism-based.
Data set [12] can be described thus: Binding affinity to elastase. Also on record: species or system Homo sapiens.
Data set [13] in a line: Clearance in iv or po dosed rat. The note with it: in vivo. The format is ADME, organism-based.
Data set [14] can be described thus: Cmax in iv or po dosed rat. It is filed as ADME, organism-based. Particulars: in vivo.

T1 sequence (Q15661 whole entry): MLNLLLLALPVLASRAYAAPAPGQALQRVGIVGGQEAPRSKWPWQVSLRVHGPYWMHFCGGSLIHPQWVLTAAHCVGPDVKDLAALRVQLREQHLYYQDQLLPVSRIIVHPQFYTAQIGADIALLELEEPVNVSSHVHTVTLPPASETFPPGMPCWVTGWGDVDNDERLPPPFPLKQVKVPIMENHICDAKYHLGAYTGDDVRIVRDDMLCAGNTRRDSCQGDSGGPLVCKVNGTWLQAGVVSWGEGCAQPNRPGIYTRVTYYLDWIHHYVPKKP

In general, Ki refers to a measure of affinity in units of concentration, obtained from inhibition or displacement. Turning to `NCCCC[C@H](NC(=O)OCc1ccccc1)C(=O)c1noc(Cc2ccc(OCCc3cccc(Cl)c3)cc2)n1`, the Ki app on Trypsin came to 190 nM. On Tryptase beta-1 [1], the affinity, expressed as Ki, was 13 nM.
The compound `NCCCC[C@H](NC(=O)OCc1ccccc1)C(=O)c1noc(Cc2ccc(OCCCc3ccccc3)cc2)n1` had a Ki app on Trypsin of 41 nM. The Ki at Tryptase beta-1 [1] was found to be 25 nM.
The matching figures for `NCCCC[C@H](NC(=O)OCc1ccccc1)C(=O)c1noc(Cc2ccc(OCc3ccccc3)cc2)n1`: 24 nM and 180 nM.
On Trypsin, `COc1ccc(CCOc2ccc(Cc3nc(C(=O)[C@H](CCCCN)NC(=O)OCc4ccccc4)no3)cc2)cc1OC` returned a Ki app of 11 nM. This compound also displayed a Ki on Tryptase beta-1 [1] of 24 nM.
`NCCCC[C@H](NC(=O)OCc1ccccc1)C(=O)c1noc(Cc2ccc(OCCC3CCCCC3)cc2)n1` registered a Ki app at Trypsin of 1000 nM. Besides, on Tryptase beta-1 [1], affinity was put at a Ki of 1100 nM.
As to `NCCCC[C@H](NC(=O)OCc1ccccc1)C(=O)c1noc(Cc2ccc(OCCc3cccc4ccccc34)cc2)n1`, on Trypsin, the Ki app was 95 nM. Also, at Tryptase beta-1 [1], the Ki was 78 nM.
The term AUC denotes concentration integrated over time. The bioavailability is the share of a dose that reaches the circulation, judged against a reference dose that is usually intravenous. The term Cmax denotes the highest concentration seen after dosing. Turning to `CCOC(=O)N[C@@H](CCCCN)C(=O)c1noc(Cc2ccc(OCCc3ccccc3)cc2)n1`, the Ki at Tryptase [2] is 5.5 nM; on Tryptase [3], 43.5 nM; on Tryptase [4], 380 nM; at Tryptase beta-1 [5], 46.5 nM; in [12], above 150000 nM. The compound also showed an AUC in data set [6] of 0.183 µM·h. The Vd stood at 0.91 L/kg in data set [7] and 7 L/kg in data set [10]. For the same compound, the Fa in data set [8] was 18%. The bioavailability in [9] is 8.4%; in [11], 68%. The clearance in data set [13] worked out at 93 mL/min/kg. Further, the Cmax in data set [14] was found to be 590 nM.
With `COc1ccc(CCOc2ccc(Cc3nc(C(=O)[C@H](CCCCN)NC(=O)OCc4ccccc4)no3)cc2)cc1`, the Ki app at Trypsin worked out at 34 nM. The compound further yielded a Ki at Tryptase beta-1 [1] of 19 nM.
The matching figures for `NCCCC[C@H](NC(=O)OCc1ccccc1)C(=O)c1noc(Cc2ccc(OCCc3ccc(Cl)c(Cl)c3)cc2)n1`: 280 nM and 10 nM.
As for `NCCCC[C@H](NC(=O)OCc1ccccc1)C(=O)c1noc(Cc2ccc(OCCc3ccc(F)cc3)cc2)n1`, the Ki app at Trypsin amounted to 110 nM. The same compound had a Ki on Tryptase beta-1 [1] of 16 nM.
The matching figures for `NCCCC[C@H](NC(=O)OCc1ccccc1)C(=O)c1noc(Cc2cccc(OCCCc3ccccc3)c2)n1`: 92 nM and 120 nM.
Regarding `NCCC[C@H](NC(=O)OCc1ccccc1)C(=O)c1noc(Cc2ccccc2)n1`, the Ki app at Trypsin was found to be 68 nM. Moreover, affinity on Tryptase beta-1 [1] was put at a Ki of 2700 nM.
In the same order, the values of `NCCCC[C@H](NC(=O)OCc1ccccc1)C(=O)c1noc(Cc2ccc(OCCc3ccc(Cl)cc3)cc2)n1` are 270 nM and 14 nM.
The matching figures for `COc1cccc(CCOc2ccc(Cc3nc(C(=O)[C@H](CCCCN)NC(=O)OCc4ccccc4)no3)cc2)c1`: 59 nM and 41 nM.
In the same order, the values of `NCCCC[C@H](NC(=O)OCc1ccccc1)C(=O)c1noc(Cc2ccc(OCCc3ccc(Cl)cc3Cl)cc2)n1` are 410 nM and 96 nM.
`NCCCC[C@H](NC(=O)OCc1ccccc1)C(=O)c1noc(Cc2ccc(OCCc3ccc4ccccc4c3)cc2)n1` yielded a Ki app on Trypsin of 140 nM. In addition, the affinity at Tryptase beta-1 [1], expressed as Ki, was 27 nM.
Compound `NCCCC[C@H](NC(=O)OCc1ccccc1)C(=O)c1noc(Cc2cccc(OCCc3ccccc3)c2)n1` came in with a Ki app at Trypsin of 82 nM. Moreover, the Ki on Tryptase beta-1 [1] was found to be 360 nM.
Consider `NCCCC[C@H](NC(=O)OCc1ccccc1)C(=O)c1noc(Cc2ccc(OCCc3ccccc3)cc2)n1`, for which the Ki app at Trypsin was 35 nM.
